Legend:
CD45 phosphatase = molecular target: T1, CD45 phosphatase (Homo sapiens, UniProt P08575); test: CD45 phosphatase activity in THP1 cells; format: cell-based; settings: peptide added to THP1 cells; FIG. 2
T1 construct: endogenous in cells; host or cells: THP1 cells
T1 sequence (P08575 26-1306): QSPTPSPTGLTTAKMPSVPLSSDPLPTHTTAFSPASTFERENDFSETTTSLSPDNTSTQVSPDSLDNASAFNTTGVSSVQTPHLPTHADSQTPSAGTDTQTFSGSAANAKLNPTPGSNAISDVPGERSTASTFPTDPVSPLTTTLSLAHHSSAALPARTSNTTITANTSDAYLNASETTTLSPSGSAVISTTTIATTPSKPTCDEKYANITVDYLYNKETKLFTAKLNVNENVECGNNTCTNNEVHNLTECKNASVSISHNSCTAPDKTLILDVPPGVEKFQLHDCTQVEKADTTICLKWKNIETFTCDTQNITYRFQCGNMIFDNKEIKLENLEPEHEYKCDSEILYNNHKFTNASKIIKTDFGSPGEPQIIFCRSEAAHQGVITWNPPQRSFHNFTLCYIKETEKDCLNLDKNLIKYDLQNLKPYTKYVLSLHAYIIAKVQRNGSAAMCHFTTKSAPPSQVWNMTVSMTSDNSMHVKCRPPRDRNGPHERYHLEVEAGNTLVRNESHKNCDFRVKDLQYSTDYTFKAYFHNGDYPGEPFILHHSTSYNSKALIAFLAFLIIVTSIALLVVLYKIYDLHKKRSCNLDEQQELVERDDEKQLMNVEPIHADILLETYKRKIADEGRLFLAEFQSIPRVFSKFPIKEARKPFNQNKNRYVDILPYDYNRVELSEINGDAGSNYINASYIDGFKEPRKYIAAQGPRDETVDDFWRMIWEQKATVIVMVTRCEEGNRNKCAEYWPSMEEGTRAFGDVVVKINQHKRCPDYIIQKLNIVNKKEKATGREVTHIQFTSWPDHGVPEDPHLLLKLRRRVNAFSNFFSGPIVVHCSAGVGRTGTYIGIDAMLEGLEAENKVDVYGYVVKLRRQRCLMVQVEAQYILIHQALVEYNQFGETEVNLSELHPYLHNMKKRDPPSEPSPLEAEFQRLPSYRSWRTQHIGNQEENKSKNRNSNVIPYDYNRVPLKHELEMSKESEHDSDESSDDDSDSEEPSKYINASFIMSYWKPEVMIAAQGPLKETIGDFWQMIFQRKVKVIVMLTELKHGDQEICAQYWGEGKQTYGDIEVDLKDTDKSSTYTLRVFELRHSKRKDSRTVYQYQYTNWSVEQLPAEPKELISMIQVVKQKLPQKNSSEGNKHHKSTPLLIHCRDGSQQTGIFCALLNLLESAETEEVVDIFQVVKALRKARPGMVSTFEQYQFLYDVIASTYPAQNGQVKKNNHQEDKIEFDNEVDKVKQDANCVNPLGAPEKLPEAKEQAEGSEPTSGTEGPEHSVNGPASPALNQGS

[1] = tested on: NeuN positive neurons in Layer 5 of the piriform cortex; test: neuronal survival in 5×FAD mice given exogenous Amyloid-beta 1-42; format: in vivo, mouse; settings: 5×FAD mice treated with exogenous Amyloid-beta 1-42; ICV via osmotic mini pump, 28 days; FIG. 6
Source text: Fifth, in a modified version of this second in vivo model of Alzheimer's Disease, and using osmotic mini pumps implanted subcutaneously to deliver the peptide through a catheter connected to the brain ventricles, it was shown that the inhibitory peptide SEQ ID NO:1 (peptide #1) reduces neuronal loss in transgenic 5×FAD animals treated with exogenous Amyloid-beta 1-42 (FIG. 6). […] Peptide was directly administered to the brain via a mini osmotic pump implanted subcutaneously and connected to the brain ventricles through a catheter for continuous drug delivery. By the end of the treatment (28 days), brain sections were generated and analyzed by confocal microscope. Quantification of NeuN immunoreactivity in Layer 5 of the piriform cortex, reflective of neuronal number, from the three mouse groups is shown.

[2] = molecular target: T2, interaction between CD33 and CD45 (Homo sapiens, UniProt P08575); test: proximity ligation assay of CD33-CD45 interaction in THP1 cells; format: cell-based; settings: human myeloid cell line THP1; peptide 0-0.1 mM; FIG. 1
T2 construct: in the human myeloid cell line THP1 using the proximity ligation assay; endogenous in cells; host or cells: THP1 (human myeloid cell line)
T2 sequence (P08575 26-1306): T1 sequence (P08575 26-1306)
Source text: To test if the binding interaction between CD33 and any of its ligands is involved in AD pathogenesis, a 12-mer peptide (RMESKTEKWMER; SEQ ID NO: 1) was designed based on the structure of the sialic-acid binding domain of siglecs (Sialic acid-binding immunoglobulin-type lectins).

[3] = tested on: endogenous Amyloid-beta 1-42 in 5×FAD mice; test: endogenous amyloid-beta 1-42 in brains of 5×FAD mice; format: in vivo, mouse; settings: ICV via osmotic mini pump, 28 days, versus vehicle, FIG. 5A/5B
Source text: Fourth, by leveraging a second in vivo model of microglia-mediated amyloid uptake in the mouse brain, and using osmotic mini pumps implanted subcutaneously to deliver the peptide through a catheter connected to the brain ventricles, it was shown that the inhibitory peptide SEQ ID NO:1 (peptide #1) reduces the amount of endogenous amyloid-beta 1-42 detectable in the brains of 5×FAD animals (FIG. 5A and FIG. 5B). 5×FAD mice express human APP and PSEN1 transgenes that include five AD-linked mutations. These mice recapitulate many AD-related phenotypes and have a relatively early and aggressive presentation. Amyloid plaques, accompanied by gliosis, are seen in mice as young as two months of age. Neuron loss occurs in multiple brain regions, beginning at about 6 months in the areas with the most pronounced amyloidosis. Mice display a range of cognitive and motor deficits.
Peptide was directly administered to the brain via a mini osmotic pump implanted subcutaneously and connected to the brain ventricles through a catheter for continuous drug delivery. By the end of the treatment (28 days), brain sections were generated and analyzed by confocal microscope. A representative image from an animal in each of the three groups is shown (FIG. 5A). Quantification of E610 immunoreactivity in the hippocampus, reflective Amyloid-beta 1-42 levels, from the three mouse groups is shown.

[4] = tested on: exogenous Amyloid-beta 1-42 in mouse brain; test: exogenous amyloid-beta 1-42 clearance in mouse brain, peptide delivered to brain ventricles by osmotic mini pump; format: in vivo; settings: ICV via osmotic mini pump, 10 uM solution, approx. 3 ug/kg daily, 28 days, Amyloid-beta 647, confocal microscopy, FIG. 3A/3B
Protocol: Third, by leveraging an in vivo model of microglia-mediated amyloid uptake in the mouse brain, and using osmotic mini pumps implanted subcutaneously to deliver the peptide through a catheter connected to the brain ventricles, it was shown that the inhibitory peptide SEQ ID NO:1 (peptide #1) reduces the amount of exogenous amyloid-beta 1-42 detectable in the brains of animals (FIG. 3A and FIG. 3B). 10 uM peptide solutions, containing SEQ ID NO: 1 (peptide #1) or SEQ ID NO: 2 (peptide #4), were added to osmotic mini pumps to permit daily delivery of approximately 5 ul of dosing solution or 3 ug/kg of peptide. A fluorescently labelled analog of amyloid beta 1-42 (Amyloid-beta 647) was delivered via ICV infusion. Confocal microscopy was later used to quantify signal in hippocampal sections. […] By the end of the treatment (28 days), brain sections were performed and analyzed by confocal microscope.
Hippocampus areas are shown of the three treated mice (FIG. 3A). Quantification of Amyloid-beta 1-42 in the hippocampus from the three mouse groups are shown with a marked decrease of Amyloid-beta 1-42 in mice that received Peptide #1 but not those that were treated with Peptide #4 (FIG. 3B). […] By the end of the treatment (28 days), brain sections were analyzed by confocal microscope.

[5] = tested on: exogenous Amyloid-beta 1-42 in mouse brain; test: exogenous amyloid-beta 1-42 clearance in mouse brain, peptide delivered subcutaneously; format: in vivo; settings: peptide subcutaneous via pump, A-beta ICV, 28 days, confocal microscopy, FIG. 4
Protocol: Hippocampus areas are shown of the three treated mice (FIG. 3A). Quantification of Amyloid-beta 1-42 in the hippocampus from the three mouse groups are shown with a marked decrease of Amyloid-beta 1-42 in mice that received Peptide #1 but not those that were treated with Peptide #4 (FIG. 3B). […] The fluorescent labelled A-beta (red) was directly administered to the brain via a mini osmotic pump implanted subcutaneously and connected to the brain ventricles through a catheter for continuous drug delivery. The peptide (SEQ ID NO: 1) was delivered subcutaneously via another pump. By the end of the treatment (28 days), brain sections were analyzed by confocal microscope.

Sequence: MESKTEKWMERI [SEQ ID NO: 2, reference compound]
- CD45 phosphatase activity (CD45 phosphatase): does not

Sequence: RMESKTEKWMER [SEQ ID NO: 1]
- neuronal survival (NeuN immunoreactivity in Layer 5 of the piriform cortex) [1]: increased neuronal survival in vivo
- interaction between CD33 and CD45 (proximity ligation assay) [2]: reduces the interaction between CD33 and CD45
- CD45 phosphatase activity (CD45 phosphatase): leads to an increase in CD45 phosphatase activity
- amount of endogenous Amyloid-beta 1-42 (E610 immunoreactivity in hippocampus) [3]: decreases the amount of endogenous Amyloid-beta 1-42 in vivo
- amount of exogenous Amyloid-beta 1-42 in hippocampus [4]: decreases the amount of exogenous Amyloid-beta 1-42 in vivo
- amount of exogenous Amyloid-beta 1-42 in brain parenchyma [5]: decreases the amount of exogenous Amyloid-beta 1-42 in brain

Source: US20230331780A1, “COMPOSITIONS AND METHODS FOR THE TREATMENT OF ALZHEIMER'S DISEASE” (The Trustees of Columbia University in the City of New York, priority 2020, published 2023)
